Values quoted from earlier work as cited in patent publication US20170239312A1, “WEIGHT MANAGEMENT SYSTEMS AND RELATED METHODS” (priority 2013, published 2017).

What was measured:
[1] = caffeine alone
[2] = fed capsaicin versus saline (control group)
[3] = obese rats, 10 mg/kg-body weight
[4] = system: 3T3-L1 pre-adipocytes; conditions: dose- and time-dependent
[5] = 50-200 mg/day
[6] = mice, high fat diet, 10 weeks

Cn1c(=O)c2c(ncn2C)n(C)c1=O [Caffeine]
Effect on thermogenesis or fat oxidation [1]: no effect

COc1cc(CNC(=O)CCCC/C=C/C(C)C)ccc1O [capsaicin]
Decrease in body weight [2]: 8%

O=c1c(O)c(-c2ccc(O)c(O)c2)oc2cc(O)cc(O)c12 [quercetin]
Body weight gain [3]: reduced body weight gain
Apoptosis (cell suicide) [4]: induced apoptosis

CCNC(=O)CC[C@H](N)C(=O)O [theanine]
Time to sense of relaxation [5]: 30 to 40 min

fucoxanthin
Body weight and adipose tissue [6]: significant decrease in body weight and adipose tissue
